Assays:
B16-Ova cells [1] = experiment: In vitro cross presentation assay: drug-treated B16-Ova cells, BMDC and OT-1 CD8+ T-cells, IFN-γ+ T-cells by flow cytometry; assay type: cell-based, mouse; parameters: reduction of the percentage of IFNg+ T-cells by siRNA knockdown of calreticulin / reduction of T-cell IFN-γ responses / frequency of IFN-γ+ T-cells: concentration or dose not given beside the values; details: for inducing the appearance of IFNγ+OT-1 CD8+ T-cells: 50 μM etoposide or 10 μM mitoxantrone; for reduction of the percentage of IFNg+ T-cells by siRNA knockdown of calreticulin: compared to siRNA controls
Experimental: B16-Ova or MC-38 Ova cells were treated with various doses of chemotherapeutic drugs for 24 h followed by extensive washing in IMDM (10% FBS, P/S). Subsequently 1×10^6 treated cells were co-cultured with 2.5×10^5 BMDC per well of a 24-well plate for each condition tested. After 24 hours of co-culture, supernatants were removed from each well and the BMDC washed 2-3 times in T-cell media (RPMI containing 10% FBS, 20 mM HEPES, 1 mM sodium pyruvate, 55 uM b-mercaptoethanol, 2 mM L-glutamine, nonessential amino acids and antibiotics). CD8+OT-I T-cells isolated from spleens of OT-I mice were then co-cultured with the BMDC at 125,000 T-cells per well to achieve an effector to target ratio of 0.5. Where indicated, BMDC and/or T-cells were also exposed to chemotherapy drugs. After a 12-15 h incubation, IFN-g producing T-cells were identified and quantified by intra-cellular cytokine staining and flow cytometry using a BD LSR II or Fortessa flow cytometer. Cells were first gated for CD3 expression, then re-gated for CD8 and IFNg expression.
An experimental system was developed to assess dendritic cell-mediated T-cell priming using the B16-Ova cells, in combination with primary bone-marrow derived dendritic cells (BMDC) and OT-I CD8+ T-cells expressing a TCR transgene that specifically recognizes the Ova-derived peptide […] (SEQ ID NO:1) in the context of H2-Kb (OT-1) (Clarke, et al., Immunol Cell Biol., 78(2):110-7 (2000); Hogquist, et al., Cell, 76(1):17-27 (1994)). […] The treated B16-Ova cells/BMDC co-culture was then incubated with purified CD8+ T-cells obtained from the spleens of OT-1 mice, and the appearance of IFNg+CD8 T-cells was measured 12-15 hours later by intracellular staining and subsequent quantification using flow cytometry.

B16-Ova cells [2] = experiment: ATP levels in cell-free culture media by CellTiter-Glo; assay type: cell-based, mouse; details: for ATP (nM) MEAN: culture media 24-48 hours after treatment
Experimental: For measurement of ATP levels, cell-free culture media obtained as above was analyzed by CellTiter-Glo according to the manufacturer's protocol. Values were converted to ATP concentrations using a standard curve generated using pure ATP.

B16-Ova tumors [3] = experiment: Flank B16-Ova tumors in mice: tumor size, survival, re-challenge; assay type: in vivo, C57BL/6J WT mice; details: intratumoral injection alone, three weekly doses
Experimental: Cross-sectional area of tumors was measured in mm^2 using calipers every 2-3 days. In tumor re-challenge experiments, naive mice controls or mice who had complete tumor regression and remained tumor free for at least 60 days were subcutaneously injected in the left flank (contra-lateral to the initial tumor) with 0.1×10^6 B16-Ova cells, and tumor development was monitored for another 60 days.

B16-Ova tumors [4] = experiment: Circulating H2-Kb/[…]-tetramer positive CD8+ T-cells in mice bearing B16-Ova tumors; assay type: in vivo, C57BL/6J WT mice; details: bled after the second intra-tumoral dose
Experimental: Briefly, 50 μl of whole blood was collected by retro-orbital bleeding, centrifuged at 250×g for 5 min, followed by 3 rounds of RBC lysis in 200 ul of ACK buffer. Cells were then washed once in Tetramer stain buffer (PBS containing 5 mM EDTA, 1% BSA and 50 nM Dasatinib), and stained with PE-conjugated Tetramer for 40 min at RT, followed by co-staining with anti-CD8 for 10 min at 4° C. Cells were then stained with DAPI, washed and re-suspended in tetramer stain buffer for flow cytometry analysis.

B16-Ova tumors [5] = experiment: Immunophenotyping of intra-tumoral DC by flow cytometry; assay type: in vivo, mice; details: combined with checkpoint blockade; after 2 doses of vaccine or etoposide and 3 doses of checkpoint blockade
Experimental: Phenotypic characterization of immune cell populations was performed by flow cytometry. Briefly, tumors were harvested and mashed through a […] filter. Collected cells were washed in FACS buffer (PBS containing 5 mM EDTA and 1% BSA), resuspended, and counted. Five million cells from each sample were stained with fluorophore-conjugated antibodies on ice for 30 min, co-stained with Aqua, washed, resuspended in 450 μl, supplemented with 50 μl of CountBright absolute counting beads, and analyzed on a BD LSR Fortessa flow cytometer. DCs were scored as CD45+Ly6CCD24+MHCII+F480−(CD11b+ or CD103+) cells using the gating strategy described in Broz M L, et al., Cancer Cell, 8; 26(6):938 (2014).
To test whether the efficacy of the tumor cell vaccine and checkpoint combination treatment for an anti-tumor immune response depends on DCs that can cross-present tumor antigens, the numbers of CD11b^+C103^−DC2 cells and CD11b^−CD103^+DC1 cells were enumerated by immunophenotyping and flow cytometry. […] As before, mice bearing flank B16-Ova tumors were treated with saline or the tumor cell vaccine intra-tumorally, in the presence or absence of systemic checkpoint blockade (FIG. 5A), and analyzed. […]

BMDCs = experiment: Viability of BMDCs upon exposure to etoposide
[6] = B16-Ova cells treated with 10 uM for 24 h
[7] = B16-Ova cells treated with 50 uM for 24 h

COc1cc([C@@H]2c3cc4c(cc3[C@@H](O[C@@H]3O[C@@H]5CO[C@@H](C)O[C@H]5[C@H](O)[C@H]3O)[C@H]3COC(=O)[C@H]23)OCO4)cc(OC)c1O [Etop, etoposide]
inducing the appearance of IFNγ+OT-1 CD8+ T-cells (B16-Ova cells [1]): highly effective
% CD3+CD8+IFN-γ+ T-cells MEAN (B16-Ova cells [1]; [6]): 0.86%
% CD3+CD8+IFN-γ+ T-cells MEAN (B16-Ova cells [1]; [7]): 4.80%
% CD3+CD8+IFN-γ+ T-cells MEAN (B16-Ova cells [1]; Table 7 experiment, 50 uM alone): 4.11%
% CD3+CD8+IFN-γ+ T-cells MEAN (B16-Ova cells [1]; Table 10 experiment, Etop 50 uM alone): 22.90%
appearance of IFN-γ+ CD8+ T-cells (B16-Ova cells [1]; co-exposure of both BMDCs and tumor cells, compared to exposure of B16-Ova cells alone): significantly reduced the appearance of IFN-γ+ CD8+ T-cells
reduction of the percentage of IFNg+ T-cells by siRNA knockdown of calreticulin (B16-Ova cells [1]): ~50%
magnitude of IFN-γ responses in T-cells (B16-Ova cells [1]; increasing doses from 0 to 100 uM): corresponding increase in the magnitude of IFN-γ responses
% CD3+CD8+IFN-γ+ T-cells MEAN (B16-Ova cells [1]; siCalR (calreticulin knockdown) B16-Ova cells, 50 uM): 2.71%
% CD3+CD8+IFN-γ+ T-cells MEAN (B16-Ova cells [1]; siCtrl (control siRNA) B16-Ova cells, 50 uM): 5.25%
tumor-directed T-cells relative to the level when exposure is limited to the tumor cells alone (B16-Ova cells [1]; triple co-exposure of tumor cells, BMDCs and T-cells): less than 10%
ATP (nM) MEAN (B16-Ova cells [2]; 10 uM): 2.05 nM
ATP (nM) MEAN (B16-Ova cells [2]; 50 uM): 1.35 nM
tumor growth (B16-Ova tumors [3]): no effect on tumor growth
H2-Kb-SIINFEKL (SEQ ID NO: 1)-specific T-cells (%) MEAN (B16-Ova tumors [4]): 0.29%
number of CD103+DC1 in tumors (B16-Ova tumors [5]): did not enhance numbers of CD103+DC1
viability of BMDCs (BMDCs): significantly reduced

O=C1c2c(O)ccc(O)c2C(=O)c2c(NCCNCCO)ccc(NCCNCCO)c21 [Mito, mitoxantrone]
IFN-γ responses in T-cells (B16-Ova cells [1]; 5 uM): maximum IFN-γ responses
IFN-γ responses in T-cells (B16-Ova cells [1]; 10 uM): lower IFN-γ response
IFN-γ responses in T-cells (B16-Ova cells [1]; 25 uM and higher doses): undetectable
inducing the appearance of IFNγ+OT-1 CD8+ T-cells (B16-Ova cells [1]): highly effective
% CD3+CD8+IFN-γ+ T-cells MEAN (B16-Ova cells [1]; [6]): 5.57%
% CD3+CD8+IFN-γ+ T-cells MEAN (B16-Ova cells [1]; [7]): 0.44%
% CD3+CD8+IFN-γ+ T-cells MEAN (B16-Ova cells [1]; Table 7 experiment, 10 uM alone): 3.98%
reduction of the percentage of IFNg+ T-cells by siRNA knockdown of calreticulin (B16-Ova cells [1]): ~80%
% CD3+CD8+IFN-γ+ T-cells MEAN (B16-Ova cells [1]; siCalR (calreticulin knockdown) B16-Ova cells, 10 uM): 1.10%
% CD3+CD8+IFN-γ+ T-cells MEAN (B16-Ova cells [1]; siCtrl (control siRNA) B16-Ova cells, 10 uM): 4.63%
ATP (nM) MEAN (B16-Ova cells [2]; 10 uM): 1.02 nM
ATP (nM) MEAN (B16-Ova cells [2]; 50 uM): 1.80 nM
ATP release (B16-Ova cells [2]; after 24 hours of treatment): Substantial ATP release

— patent US20210154281A1, “CELL-BASED CANCER VACCINES AND CANCER THERAPIES” (Massachusetts Institute of Technology, priority 2019, published 2021)
